Laboratory results from PubChem BioAssay (NCI).
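Protocol summary: plate cells (96-well), add compound at 5 concentrations, incubate 48 h, interpolate endpoints linearly. TGI denotes the concentration required for complete inhibition of growth.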

Key:
Test in all cases: DTP human tumour cell line panel, 48 h
[1] = tested on: UACC-62 melanoma
[2] = tested on: OVCAR-5 ovarian
[3] = tested on: RPMI-8226 leukemia
[4] = tested on: SF-539 CNS
[5] = tested on: MDA-MB-435
[6] = tested on: HCC-2998 colon
[7] = tested on: SK-MEL-2 melanoma
[8] = tested on: OVCAR-3 ovarian
[9] = tested on: K-562 leukemia
[10] = tested on: LOX IMVI melanoma
[11] = tested on: PC-3 prostate
[12] = tested on: HS 578T breast
[13] = tested on: SK-MEL-28 melanoma
[14] = tested on: MOLT-4 leukemia
[15] = tested on: RXF 393 renal
[16] = tested on: CCRF-CEM leukemia
[17] = tested on: HT29 colon
[18] = tested on: ACHN renal
[19] = tested on: MCF7 breast
[20] = tested on: M14 melanoma
[21] = tested on: SK-OV-3 ovarian
[22] = tested on: TK-10 renal
[23] = tested on: HL-60(TB) leukemia
[24] = tested on: UACC-257 melanoma
[25] = tested on: MDA-N
[26] = tested on: KM12 colon
[27] = tested on: T-47D breast
[28] = tested on: A549 NSCLC
[29] = tested on: NCI-H460 lung
[30] = tested on: SNB-75 CNS
[31] = tested on: CAKI-1 renal
[32] = tested on: COLO 205 colon
[33] = tested on: SNB-19 CNS
[34] = tested on: U251 CNS
[35] = tested on: SK-MEL-5 melanoma
[36] = tested on: HCT-15 colon
[37] = tested on: OVCAR-4 ovarian
[38] = tested on: IGROV1 ovarian
[39] = tested on: SF-295 CNS
[40] = tested on: EKVX NSCLC
[41] = tested on: BT-549 breast
[42] = tested on: SN12C renal
[43] = tested on: NCI/ADR-RES ovarian
[44] = tested on: SF-268 CNS
[45] = tested on: DU-145 prostate
[46] = tested on: NCI-H522 lung
[47] = tested on: HOP-62 NSCLC
[48] = tested on: NCI-H226 lung
[49] = tested on: 786-0 renal
[50] = tested on: MDA-MB-231 breast
[51] = tested on: SR leukemia
[52] = tested on: NCI-H23 lung
[53] = tested on: SW-620 colon
[54] = tested on: A498 renal
[55] = tested on: HCT-116 colon
[56] = tested on: OVCAR-8 ovarian
[57] = tested on: MALME-3M melanoma
[58] = tested on: HOP-92 NSCLC
[59] = tested on: UO-31 renal

Measured: TGI

COC(=O)Cc1ccc2c(cnn2-c2ccccc2)c1OC
> 10 µM: [1] | [2] | [3] | [4] | [5] | [6] | [7] | [8] | [9] | [10] | [11] | [12] | [13] | [14] | [15] | [16] | [17] | [18] | [19] | [20] | [21] | [22] | [23] | [24] | [25] | [26] | [27] | [28] | [29] | [30] | [31] | [32] | [33] | [34] | [35] | [36] | [37] | [38] | [39] | [40] | [41] | [42] | [43] | [44] | [45] | [46] | [47] | [48] | [49] | [50] | [51] | [52] | [53] | [54] | [55] | [56] | [57]

c1ccc2c(c1)Sc1nccc3ccnc-2c13
43.4 µM: [18]
> 100 µM: [1] | [2] | [3] | [4] | [5] | [6] | [7] | [8] | [9] | [10] | [11] | [13] | [15] | [16] | [19] | [20] | [21] | [22] | [23] | [24] | [25] | [26] | [27] | [32] | [33] | [58] | [34] | [35] | [37] | [38] | [39] | [40] | [41] | [42] | [43] | [44] | [45] | [47] | [48] | [49] | [50] | [51] | [52] | [53] | [54] | [55] | [56] | [57]
41 µM: [31]
33.2 µM: [29]
56.6 µM: [14]
47.6 µM: [59]
65.3 µM: [12]
97.1 µM: [46]
58.7 µM: [30]
65.5 µM: [17]
